Results taken from US20240182427A1, “SOLID DOSAGE FORMS OF A PLASMA KALLIKREIN INHIBITOR” (Rezolute, Inc., priority 2022, published 2024).
Each block holds one molecule with its values, some of them ahead of it.

Tests used:
[1] = Aqueous solubility of anhydrous Crystalline Form I; assay type: physicochemical; details: water (aqueous); anhydrous Crystalline Form I of acetate salt, at 25° C.
[2] = system: model of hemorrhagic stroke; details: cited from earlier work
[3] = system: angiotensin-II-treated rodents; details: cited from earlier work
[4] = system: rat model of ischemic stroke; details: cited from earlier work
[5] = Intestinal permeability / solubility classification (BCS)
[6] = system: patients with hereditary angioedema; details: cited from earlier work
[7] = system: animal model of ischemic stroke; details: cited from earlier work
[8] = system: mouse model of middle cerebral artery occlusion; details: cited from earlier work

solubility [1]: ~8300 µg/mL
BCS class [5]: BCS Class 3
solubility [5]: high
Molecule: N=C(N)c1ccc(CNC(=O)c2cnn(Cc3ccccc3)c2)cc1 [Compound 1, 1-benzyl-1H-pyrazole-4-carboxylic acid 4-carbamimidoylbenzylamide]
expansion of intracerebral hemorrhage [2]: reduce
retinal vascular permeability [3]: reduce
cerebrovascular edema [4]: reduce
infarction volume [4]: reduce

Molecule: Hoe-140 [reference compound]
retinal vascular permeability [3]: reduce

Molecule: ecallantide
edema in patients with hereditary angioedema ([6]; patients): alleviates
brain edema [7]: reduced
infarct volume [7]: reduced
neurological deficits [7]: reduced

Molecule: NC(N)=NCCC[C@@H](N)C(=O)N[C@@H](CCCN=C(N)N)C(=O)N1CCC[C@H]1C(=O)N1C[C@H](O)C[C@H]1C(=O)NCC(=O)N[C@@H](Cc1cccs1)C(=O)N[C@@H](CO)C(=O)N1Cc2ccccc2C[C@@H]1C(=O)N1[C@H](C(=O)N[C@@H](CCCN=C(N)N)C(=O)O)C[C@@H]2CCCC[C@@H]21 [icatibant]
treating hereditary angioedema ([6]; human, in vivo): effective

B1: C1-INH: the major endogenous inhibitor of PK (protein, UniProt P05155 23-500, looked up)
Plasma protease C1 inhibitor: NPNATSSSSQDPESLQDRGEGKVATTVISKMLFVEPILEVSSLPTTNSTTNSATKITANTTDEPTTQPTTEPTTQPTIQPTQPTTQLPTDSPTQPTTGSFCPGPVTLCSDLESHSTEAVLGDALVDFSLKLYHAFSAMKKVETNMAFSPFSIASLLTQVLLGAGENTKTNLESILSYPKDFTCVHQALKGFTTKGVTSVSQIFHSPDLAIRDTFVNASRTLYSSSPRVLSNNSDANLELINTWVAKNTNNKISRLLDSLPSDTRLVLLNAIYLSAKWKTTFDPKKTRMEPFHFKNSVIKVPMMNSKKYPVAHFIDQTLKAKVGQLQLSHNLSLVILVPQNLKHRLEDMEQALSPSVFKAIMEKLEMSKFQPTLLTLPRIKVTTSQDMLSIMEKLEFFDFSYDLNLCGLTEDPDLQVSAMQHQTVLELTETGVEAAAASAISVARTLLVFEVQQPFLFVLWDQQHKFPVFMGRVYDPRA
infarct size [8]: reduced
